In the experiment the target is T1, full-length human S1P1 (Homo sapiens, UniProt P21453).
T1 construct: CHO-K1 Gαqi5 cells expression full-length human S1P1; expressed in transfected cells; host or cells: CHO-K1 Gαqi5 cells (membrane preparation)
Briefly: GTPγS binding assay (scintillation proximity assay) with S1P1 membranes. The class given is biochemical. The settings on record: S1P1 membrane from CHO-K1 Gαqi5 cells; GTPγ35S SPA, 60 minutes incubation. The method, then:
S1P1 membrane is prepared from CHO-K1 Gαqi5 cells expression full-length human S1P1. Scintillation proximity assay (SPA) is performed by incubating membranes, GTPγ^35S, and compounds at various concentrations for 60 minutes. Wheat germ agglutinin-coated SPA beads are added and incubated for 60 minutes before centrifugation and scintillation counting.
(GTPγS resists hydrolysis and so accumulates on activated G proteins.)

T1 sequence (P21453 whole entry): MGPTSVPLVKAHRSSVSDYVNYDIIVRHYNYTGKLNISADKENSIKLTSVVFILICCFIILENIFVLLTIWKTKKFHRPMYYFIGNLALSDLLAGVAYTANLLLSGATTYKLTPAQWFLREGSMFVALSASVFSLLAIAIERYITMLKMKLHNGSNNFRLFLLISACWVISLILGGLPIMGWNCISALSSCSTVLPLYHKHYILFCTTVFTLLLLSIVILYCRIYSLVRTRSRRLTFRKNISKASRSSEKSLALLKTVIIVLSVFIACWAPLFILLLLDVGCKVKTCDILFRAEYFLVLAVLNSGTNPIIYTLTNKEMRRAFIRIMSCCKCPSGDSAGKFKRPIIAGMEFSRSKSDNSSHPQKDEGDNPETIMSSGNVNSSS

The EC50 is the concentration giving half of the maximal effect. Lower therefore signals greater potency. The compound `N[C@@H](CO)COc1cc(Cl)c(-c2noc(-c3cn4nc(C(F)(F)F)ccc4n3)n2)cc1Cl` [Compound 19, (S)-2-amino-3-(2,5-dichloro-4-(5-(6-(trifluoromethyl)imidazo[1,2-b]pyridazin-2-yl)-1,2,4-oxadiazol-3-yl)phenoxy)propan-1-ol] showed an EC50 of less than 100 nM.

On to `CC(CO)Oc1cc(Cl)c(-c2noc(-c3cn4cc(C(F)(F)F)ncc4n3)n2)cc1Cl` (stereo not shown) [Compound 7, 2-(2,5-dichloro-4-(5-(6-(trifluoromethyl)imidazo[1,2-a]pyrazin-2-yl)-1,2,4-oxadiazol-3-yl)phenoxy)propan-1-ol], for which the EC50 is less than 100 nM. Compound `OC[C@@H](O)COc1cc(Cl)c(-c2noc(-c3cn4cc(C(F)(F)F)ncc4n3)n2)cc1Cl` [Compound 9, (R)-3-(2,5-dichloro-4-(5-(6-(trifluoromethyl)imidazo[1,2-a]pyrazin-2-yl)-1,2,4-oxadiazol-3-yl)phenoxy)propane-1,2-diol] showed an EC50 of less than 100 nM.

`OC[C@H](O)COc1cc(Cl)c(-c2noc(-c3cn4nc(C(F)(F)F)ccc4n3)n2)cc1Cl` [Compound 22, (S)-3-(2,5-dichloro-4-(5-(6-(trifluoromethyl)imidazo[1,2-b]pyridazin-2-yl)-1,2,4-oxadiazol-3-yl)phenoxy)propane-1,2-diol]: the EC50 was 100 to 1000 nM. For `CC(CO)Oc1cc(Cl)c(-c2noc(-c3cn4nc(C(F)(F)F)ccc4n3)n2)cc1Cl` (stereo not shown) [Compound 21, 2-(2,5-dichloro-4-(5-(6-(trifluoromethyl)imidazo[1,2-b]pyridazin-2-yl)-1,2,4-oxadiazol-3-yl)phenoxy)propan-1-ol] the value was 100 to 1000 nM. In turn, `N[C@@H](CO)COc1cc(Cl)c(-c2noc(-c3cn4cc(C(F)(F)F)ncc4n3)n2)cc1Cl` [Compound 24, (S)-2-amino-3-(2,5-dichloro-4-(5-(6-(trifluoromethyl)imidazo[1,2-a]pyrazin-2-yl)-1,2,4-oxadiazol-3-yl)phenoxy)propan-1-ol] showed an EC50 of less than 100 nM.

With `OC[C@H](O)COc1cc(Cl)c(-c2noc(-c3cn4cc(C(F)(F)F)ncc4n3)n2)cc1Cl` [Compound 8, (S)-3-(2,5-dichloro-4-(5-(6-(trifluoromethyl)imidazo[1,2-a]pyrazin-2-yl)-1,2,4-oxadiazol-3-yl)phenoxy)propane-1,2-diol], the EC50 is less than 100 nM.

For the origin of these results see patent publication US20210163485A1, “Heterocyclic Compounds for the Treatment of Disease” (Oppilan Pharma Ltd., priority 2017, published 2021).
